Assays:
[1] = test system: Long Evans adult rats with noise-induced tinnitus; experiment: Model of tinnitus: gap pre-pulse inhibition of acoustic startle in noise-exposed Long Evans rats; format: in vivo, rat
Description: Twenty Long Evans adult rats were exposed to a unilateral 116 dB, 16 kHz octave-band noise for one hour in order to induce hearing loss and chronic tinnitus. Ten control rats received a sham noise exposure. Approximately thirty days after the noise exposure hearing thresholds were determined for each animal. Animals were then assessed for the presence of tinnitus using a gap pre-pulse inhibition of acoustic startle paradigm similar to that described by Turner J G, Brozoski T J, Bauer C A, Parrish J L, Myers K, Hughes L F, Caspary D M. Behav Neurosci. 2006 February; 120(1):188-95. In this test, rats were placed on a motion sensor that measured the startle amplitude of the animals in response to a sudden loud sound (115-dB SPL, 20-ms duration) emitted by a loudspeaker located in the ceiling of the cage. It is known that a brief, non-startling sound or “pre-pulse”, prior to the startle sound can reduce the startle amplitude, a phenomenon known as pre-pulse inhibition. In the present study, the pre-pulse is substituted by a 50 ms silence gap in a constant sound 100 ms prior to the startle sound. If the gap is perceived by the animal, then then startle response will be inhibited. However, if the animal has tinnitus, then the tinnitus sound may fill the gap and will startle as if there were no gap (reduced or absent gap pre-pulse inhibition). A drug that reduces the tinnitus will therefore restore gap pre-pulse inhibition.
The pitch of tinnitus is typically in the same range as the hearing loss, which in turn is most marked at the frequencies of the noise trauma. Thus each animal was tested for gap pre-pulse inhibition using gaps in tones of 10, 12.5, 16, 20, and 25 kHz at 60-65 dB SPL. As a control, the animals were also tested with gaps in a broadband sound of the same amplitude. Irrespective of whether the animals have tinnitus, it is unlikely that the tinnitus would fill the gap in the broadband sound, and thus this provides a control for whether the noise-trauma might have affected the gap detection ability of the rats. […]

[2] = test system: chinchilla model of acute noise-induced hearing loss; experiment: Chinchilla model of acute noise-induced hearing loss (auditory brainstem response thresholds); format: in vivo; conditions: 60 mg/kg i.p., doses 12 hours apart, 5 pre- and 5 post-noise; 21 days after noise exposure; p<0.01
Description: The otoprotective efficacy of COMPOUND X (i.e. the ability to prevent or reduce the development of permanent acute noise-induced hearing loss) was investigated using a chinchilla model of acute noise-induced hearing loss, as follows:
Subjects comprised male, 3 year old chinchillas (Laniger), 10 animals per group.
Vehicle (20% Captisol®, 0.5% w/v HPMC K15M and 0.5% w/v Tween-80™) was prepared using autoclaved deionized water not more than one week prior to use. A suspension of COMPOUND X in the vehicle at 10 mg/ml was prepared less than 24 hours prior to administration. COMPOUND X was administered at 60 mg/kg via the intraperitoneal route, with doses 12 hours apart. Five injections were given pre-noise exposure and five post-noise exposure. […]
Auditory brainstem responses (ABRs) were collected prior to noise exposure and 21 days after noise exposure. […] Thresholds were measured in response to tone-bursts with 1 ms rise/fall and a 0 ms plateau gated by a Blackman envelope and centred at the frequencies of 2, 4, 6 and 8 kHz, presented at 30/s. […]
The thresholds for ABRs at the four different sound frequencies at day 21 post-noise exposure were compared to the thresholds at baseline, prior to noise exposure in order to determine a threshold shift for each animal. The data were then analysed using a 2-way ANOVA, with treatment and frequency as main factors.

[3] = test system: aged and young Fischer 344 (F344) rats; experiment: Model of central auditory processing deficit: auditory gap detection (gap-induced PPI of startle) in F344 rats; format: in vivo, rat
Description: The ability of COMPOUND X to improve auditory temporal processing in the rat, was examined using an auditory gap detection procedure in aged female Fischer 344 (F344) rats with an average age of 19.5±1.9 months, and in young F344 rats with an average age of 3 months. COMPOUND X, at doses of 30 or 60 mg/kg, or vehicle were administered via the intraperitoneal route on three test occasions using a crossover design, with an interval of at least 7 days between occasions.
Hearing thresholds in each rat were determined under anaesthesia using the auditory brainstem response (ABR) prior to the first drug administration. ABRs were recorded using subcutaneous needle electrodes in a sound attenuated chamber using pure tone bursts as stimuli (5 ms duration, frequency range 2-40 kHz).
The gap detection procedure evaluated the ability of the rats to detect short gaps in background noise by measuring the degree of inhibition that the gap afforded in the animal's startle response to a subsequent loud sound, a phenomenon known as pre-pulse inhibition (PPI). Testing was performed in a sound attenuated chamber. During the testing procedure, the rat was confined to a small wire mesh cage on a motion-sensitive platform. The animal's reflex movements were detected and transduced by a piezoelectric accelerometer. The startle response was evaluated in a 100 ms window beginning at the onset of the startle stimulus (a 110 dB SPL broad-band noise burst of 50 ms duration embedded in a background continuous broad-band noise of 65 dB SPL). Acoustic stimulation was presented via a loudspeaker placed 12 cm above the platform inside the chamber.
PPI of the startle response was induced by gaps of different durations (5-50 ms) preceding the startle stimulus by 70 ms. The degree of PPI was calculated from the startle response amplitude in the presence of the gap relative to the startle response amplitude in the absence of the gap. A two-way ANOVA with the Bonferroni post-hoc test was used to compare the degree of PPI before and after the drug applications.

Kv3 channels = conditions: cited from earlier work

Row | SMILES | gap pre-pulse inhibition ([1]; animals with evidence of tinnitus, 30 mg/kg i.p. 1-2 hours prior to testing, p<0.05) | gap pre-pulse inhibition ([1]; animals with evidence of tinnitus, 60 mg/kg i.p. 1-2 hours prior to testing, p=0.01) | gap pre-pulse inhibition ([1]; control animals or noise-exposed animals without tinnitus) | permanent threshold shift in ABR [2] | degree of PPI (gap detection) ([3]; aged F344 rats, 30 mg/kg i.p., 30 ms gap duration, p<0.001) | degree of PPI (gap detection) ([3]; aged F344 rats, 30 mg/kg i.p., gap durations of 5, 10, and 15 ms) | degree of PPI (gap detection) ([3]; aged F344 rats, 60 mg/kg i.p., 30 ms gap duration, p<0.001) | degree of PPI (gap detection) ([3]; young F344 rats, 30 mg/kg i.p.) | degree of PPI (gap detection) ([3]; young F344 rats, 60 mg/kg i.p.) | inhibition of Kv3 channels (Kv3 channels)
1 | CC[C@@]1(C)NC(=O)N(c2cnc(Oc3ccc(C)c(OC(F)(F)F)c3)nc2)C1=O [COMPOUND X, (5R)-5-ethyl-5-methyl-3-[2-({4-methyl-3-[(trifluoromethyl)oxy]phenyl}oxy)-5-pyrimidinyl]-2,4-imidazolidinedione] | significantly restored | significantly restored | no effect | significantly reduced | significantly increased | significant improvement | significantly increased | tended to increase the degree of PPI, but the increases were not significant | tended to increase the degree of PPI, but the increases were not significant | 
2 | CC[N+](CC)(CC)CC [Tetraethylammonium (TEA), Tetraethylammonium] |  |  |  |  |  |  |  |  |  | inhibit the channels at low millimolar concentrations

Reference: patent US11180461B2, “Triazoles as Kv3 inhibitors” (AUTIFONY THERAPEUTICS LIMITED, priority 2012, dated 2021)
